Source: patent EP4523686A1, “A SIGMA-1 RECEPTOR POSITIVE MODULATOR FOR ITS USE IN THE PREVENTION AND THE TREATMENT OF A PATHOLOGY” (priority 2023, dated 2025)
Where “and” joins values, the source holds several entries; their conditions need not be identical. Identical values can stand only once.

How the values were obtained:
Male Swiss mice = test: Open field activity test (anxiolytic effect) and observation of animals; type: in vivo
Experimental: Drug administration: Route: intraperitoneal (IP), Method: by injection. The drug was administered under a volume calculated according to the individual body weight of each mouse (5 ml/kg), Frequency: once before the behavioral procedure, Treatment length: once, Timing: 30 minutes before behavioral procedure.
Health of animals was checked daily: general aspect of animals, activity, acute or delayed mortality. Weight was monitored the day of experiment.
The day of the test, animals were tested for general locomotor activity in the open field (OF) activity test for 10 min. The open field is made of opaque white plexiglass. The arena is composed of a large square box (50cm × 50cm × 50cm). Animal movements were followed by an overhead camera placed above the apparatus. Each mouse was placed in the center of the arena and allowed to move freely through the arena during its session. The locomotor activity was assessed by counting the total distance traveled measured in centimeters (cm) for the whole session time. The time spent in center area, and the number of defecations were also assessed.

SIG-1R/BiP = target: T1, SIG-1R/BiP (Homo sapiens, UniProt Q99720); test: SIG-1R/BiP dissociation assay in GFP-SIG-1R-overexpressing CHO cells; type: cell-based; conditions: for dissociation of SIG-1R from BiP (in words) / dissociation of the SIG-1R/BiP complex (in words): compound alone; for dissociation of the SIG-1R/BiP complex (in words): no concentration stated
T1 construct: host or cells: CHO cells overexpressing GFP-SIG-1R
T1 sequence (Q99720 whole entry): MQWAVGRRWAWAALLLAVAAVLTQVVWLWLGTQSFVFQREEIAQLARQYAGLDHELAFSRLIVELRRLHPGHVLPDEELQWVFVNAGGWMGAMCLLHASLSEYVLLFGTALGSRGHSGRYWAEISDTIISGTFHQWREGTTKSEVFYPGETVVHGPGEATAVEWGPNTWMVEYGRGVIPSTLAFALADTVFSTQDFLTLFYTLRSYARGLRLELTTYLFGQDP
Experimental: CHO cells which overexpress GFP tagged-SIG-1R (gift from Tsung-Ping Su, NIDA/NIH, Baltimore, MD, USA) were maintained in DMEM/Glutamax culture medium supplemented with 10% heat inactivated FBS. GFP-SIG-1Roe CHO cells were plated in 6-well plates and treated with test compounds dissolved in culture medium for 30 min at 37°C. The reaction was terminated by removing the culture medium containing the test drug and replacing it with 1 ml of PBS. GFP-SIG-1R-oe CHO cells were harvested and suspended in PBS (pH 7.4) followed by cross-linking with 50 µg/ml of dithiobis succinimidyl propionate (ThermoFisher, France). The reaction was stopped by adding Tris/HCl 50 mM (pH 8.8). After a 15 min incubation on ice, cells were lysed with 50 mM Tris (pH 7.4), 150 mM NaCl, 1% Triton X/100, 0.3% sodium deoxycholate, 0.1% SDS buffer containing a protease inhibitor cocktail (Sigma-Aldrich, France). After centrifugation at 16,000 g for 1 min, the supernatant was incubated with Chromotek GFP-trap agarose (Proteintech, United Kingdom) overnight at 4°C.

[1] = tested on: Dizocilpine-induced learning impairments in mice; test: Spontaneous alternation in the Y-maze, Dizocilpine-induced learning impairments; type: in vivo
Experimental: (§1) The Y-maze is made of grey polyvinylchloride. Each arm is 40 cm long, 13 cm high, 3 cm wide at the bottom, 10 cm wide at the top, and converging at an equal angle. Each mouse was placed at the end of one arm and allowed to move freely through the maze during an 8 min session. The series of arm entries, including possible returns into the same arm, were checked visually. An alternation is defined as entries into all three arms on consecutive occasions. The number of maximum alternations is therefore the total number of arm entries minus two and the percentage of alternation was calculated as (actual alternations / maximum alternations) × 100 (Maurice et al., 1996; Meunier et al., 2006, 2013). Exclusion criteria are locomotion < 10 or percentage of alternation < 25% or > 90%. Animals showing these readouts are excluded from the calculations. Attrition is routinely < 5% in this test.
Due to the chaperone nature of SIG-1R, a SIG-1R positive modulator behaves as an agonist in vivo, particularly on learning and memory abilities in mice (Maurice et al., 2019; Vavers et al., 2019). Convolamine was tested on Dizocilpine-induced learning impairments, a well-characterized SIG-1R-mediated response in mice (Maurice et al., 1994, 2001). The NMDA receptor noncompetitive antagonist Dizocilpine (0.15 mg/kg IP) prevented spontaneous alternation behavior (Fig. 4A) and increased mobility (Fig. 4B) in the Y-maze. […] Co-treatment with the SIG-1R antagonist NE-100 at 1 mg/kg IP, blocked the attenuating effect of Convolamine (Fig. 4C), thus confirming the SIG-1R-mediated effect.

[2] = tested on: Aβ25-35-induced learning impairments in mice; test: Step-through passive avoidance, Aβ25-35 model of Alzheimer's disease; type: in vivo; conditions: 0.3-3 mg/kg IP, single administration on day 1
Experimental: Amyloid-β[25-35] peptide (Aβ25-35) was from Eurogentec (Angers, France). It was solubilized in distilled water at 3 mg/ml and stored at -20°C until use. Before injection, the peptide was incubated at 37°C for 4 days, allowing oligomerization. Control injection was performed with vehicle solution (distilled water), and intracerebroventricularly (ICV) injections were done as described previously (Maurice et al., 1996, 2019).
The apparatus is a two-compartments (15 × 20 × 15 cm high) box with one illuminated with white polyvinylchloride walls and the other darkened with black polyvinylchloride walls and a grid floor. A guillotine door separates each compartment. A 60 W lamp positioned 40 cm above the apparatus lights up the white compartment during the experiment. Scrambled foot shocks (0.3 mA for 3 s) could be delivered to the grid floor using a shock generator scrambler (Lafayette Instruments, Lafayette, USA). The guillotine door was initially closed during the training session. Each mouse was placed into the white compartment. After 5 s, the door was raised. […] The step-through latency (STL-Tg), that is, the latency spent to enter the darkened compartment, and the number of vocalizations were recorded. […] The step-through latency (STL-R) was recorded up to 300 s (Meunier et al., 2006, 2013; Villard et al., 2009, 2011). […] Animals showing these readouts are excluded from the calculations. […]

Wfs1^ΔExon8 mice = test: Spontaneous alternation in the Y-maze, Wolfram syndrome mouse model; type: in vivo; conditions: 1 mg/Kg IP, 20 min before the Y-maze session
Experimental: as §1

Compound: COc1ccc(C(=O)OC2CC3CCC(C2)N3C)cc1OC (stereo not drawn) [Convolamine, (8-methyl-8-azabicyclo[3.2.1]octan-3-yl) 3,4-dimethoxybenzoate]
- percentage of locomotion in center of the arena (in words) (Male Swiss mice; IP 30 minutes before the test): increase
- time spent in the center of the arena (in words) (Male Swiss mice; IP 30 minutes before the test, compared to the vehicle-treated group): significant and bell-shaped increase
- mortality and adverse effect (in words) (Male Swiss mice; single IP injection, daily health check): No mortality nor adverse effect
- IC50 (SIG-1R/BiP; IC50 of SIG-1R positive modulatory action (displacement of PRE-084 efficacy to dissociate SIG-1R from BiP), convolamine 0.1-10 µM with PRE-084): 290 nM and 289 nM
- dissociation of SIG-1R from BiP (in words) (SIG-1R/BiP; at concentrations < 10 µM): failed to dissociate SIG-1R from BiP
- dissociation of SIG-1R from BiP (in words) (SIG-1R/BiP; at concentrations up to 30 µM): failed to dissociate SIG-1R from BiP
- dissociation of the SIG-1R/BiP complex (in words) (SIG-1R/BiP): did not induce the dissociation
- dissociation of the SIG-1R/BiP complex (in words) (SIG-1R/BiP; listed as convolamine): does not allow the dissociation
- Dizocilpine-induced alternation deficit (in words) ([1]; 0.1-1 mg/kg IP range, 10 min before Dizocilpine […] IP): attenuated, dose-dependently and significantly but in a bell-shaped manner
- attenuating effect of Convolamine on alternation deficit under NE-100 co-treatment (in words) ([1]; Convolamine 1 mg/Kg IP with NE-100 at 1 mg/kg IP): blocked
- Aβ25-35-induced deficit in the passive avoidance test (in words) [2]: not effective
- alteration of spontaneous alternation (in words) (Wfs1^ΔExon8 mice): significantly attenuated
